Results from ChEMBL document CHEMBL1201862, “PubChem BioAssay data set” (2004).
Active and inactive are the calls of the source.

Tests used:
[1] = target: Lysine-specific demethylase 4A (Homo sapiens, UniProt O75164); test: JMJD2A histone demethylase inhibitors, dose response, selectivity assay for GASC-1 inhibitor project, biochemical, DELFIA europium, cherry-picked samples (AID 488840)
Hexokinase HKDC1 = target: T1, Hexokinase HKDC1 (Homo sapiens, UniProt Q2TB90); test: HKDC1 hexokinase inhibitors, dose response, biochemical, W721R variant (AID 504729); type: functional
T1 sequence (Q2TB90 whole entry): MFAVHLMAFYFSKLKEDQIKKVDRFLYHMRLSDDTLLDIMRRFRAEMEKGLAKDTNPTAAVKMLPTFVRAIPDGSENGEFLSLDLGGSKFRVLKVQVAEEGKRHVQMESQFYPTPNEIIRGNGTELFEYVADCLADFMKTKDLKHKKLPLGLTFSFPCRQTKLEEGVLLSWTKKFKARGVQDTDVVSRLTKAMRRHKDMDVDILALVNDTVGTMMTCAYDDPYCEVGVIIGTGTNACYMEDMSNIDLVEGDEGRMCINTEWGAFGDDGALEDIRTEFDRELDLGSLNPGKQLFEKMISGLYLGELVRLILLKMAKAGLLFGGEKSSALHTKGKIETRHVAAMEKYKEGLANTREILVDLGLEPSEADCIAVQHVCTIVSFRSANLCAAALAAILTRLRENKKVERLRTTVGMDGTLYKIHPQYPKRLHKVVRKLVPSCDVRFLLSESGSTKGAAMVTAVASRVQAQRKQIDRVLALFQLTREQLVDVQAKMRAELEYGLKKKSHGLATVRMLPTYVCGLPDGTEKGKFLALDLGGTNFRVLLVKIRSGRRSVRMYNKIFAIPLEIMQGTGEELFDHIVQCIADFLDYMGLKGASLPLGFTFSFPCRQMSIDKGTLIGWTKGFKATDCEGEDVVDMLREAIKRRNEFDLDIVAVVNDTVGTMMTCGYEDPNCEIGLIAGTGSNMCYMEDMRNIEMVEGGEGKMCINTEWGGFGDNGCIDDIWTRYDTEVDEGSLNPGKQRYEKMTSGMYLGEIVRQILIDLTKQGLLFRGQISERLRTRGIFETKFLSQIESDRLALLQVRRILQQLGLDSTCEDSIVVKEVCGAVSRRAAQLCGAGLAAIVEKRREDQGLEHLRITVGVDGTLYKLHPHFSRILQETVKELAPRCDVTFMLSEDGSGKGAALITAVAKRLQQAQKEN

[2] = target: T2, Runt-related transcription factor 1/Core-binding factor subunit beta (Homo sapiens, UniProt Q01196+Q13951); test: inhibitors of RUNX1 Runt–CBFb-SMMHC binding, biochemical, TR-FRET (AID 1438); type: protein assay
T2 sequence (Q01196 whole entry): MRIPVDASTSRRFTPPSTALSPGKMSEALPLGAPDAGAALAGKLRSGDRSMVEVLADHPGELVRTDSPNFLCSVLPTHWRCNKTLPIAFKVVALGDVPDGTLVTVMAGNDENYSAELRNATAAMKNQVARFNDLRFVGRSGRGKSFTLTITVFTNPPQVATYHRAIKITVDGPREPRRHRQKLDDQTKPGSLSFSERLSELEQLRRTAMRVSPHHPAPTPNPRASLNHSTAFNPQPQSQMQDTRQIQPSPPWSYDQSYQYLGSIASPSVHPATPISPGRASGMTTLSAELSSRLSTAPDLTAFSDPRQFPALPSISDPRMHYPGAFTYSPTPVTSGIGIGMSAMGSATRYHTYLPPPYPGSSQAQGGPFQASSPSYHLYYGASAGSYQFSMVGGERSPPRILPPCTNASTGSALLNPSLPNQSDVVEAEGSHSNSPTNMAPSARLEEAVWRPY
T2 sequence (Q13951 whole entry): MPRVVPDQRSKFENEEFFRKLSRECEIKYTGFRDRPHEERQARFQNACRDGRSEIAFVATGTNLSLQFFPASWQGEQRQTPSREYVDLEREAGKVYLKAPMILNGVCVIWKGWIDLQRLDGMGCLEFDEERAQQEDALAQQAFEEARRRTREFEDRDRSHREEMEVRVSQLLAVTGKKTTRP

Protein Tat = Protein Tat (Human immunodeficiency virus type 1 group M subtype B (isolate HXB2)(HIV-1), UniProt P04608); type: functional;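 note: tat binding to TAR RNA read out by fluorescence polarization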
Chain of Protein Tat (P04608 whole entry): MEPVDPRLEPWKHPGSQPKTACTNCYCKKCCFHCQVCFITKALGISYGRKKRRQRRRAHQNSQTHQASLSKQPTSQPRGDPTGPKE

[3] = target: T3, Polyadenylate-binding protein 1 (Homo sapiens, UniProt P11940); test: PABP1 MLLE–PAM2 binding inhibitor potency, dose response, biochemical, fluorescence polarization, FITC-PAM2 peptide (AID 602259); type: functional; settings: read-out: IC50_Mean
T3 sequence (P11940 whole entry, the tested form may be a part): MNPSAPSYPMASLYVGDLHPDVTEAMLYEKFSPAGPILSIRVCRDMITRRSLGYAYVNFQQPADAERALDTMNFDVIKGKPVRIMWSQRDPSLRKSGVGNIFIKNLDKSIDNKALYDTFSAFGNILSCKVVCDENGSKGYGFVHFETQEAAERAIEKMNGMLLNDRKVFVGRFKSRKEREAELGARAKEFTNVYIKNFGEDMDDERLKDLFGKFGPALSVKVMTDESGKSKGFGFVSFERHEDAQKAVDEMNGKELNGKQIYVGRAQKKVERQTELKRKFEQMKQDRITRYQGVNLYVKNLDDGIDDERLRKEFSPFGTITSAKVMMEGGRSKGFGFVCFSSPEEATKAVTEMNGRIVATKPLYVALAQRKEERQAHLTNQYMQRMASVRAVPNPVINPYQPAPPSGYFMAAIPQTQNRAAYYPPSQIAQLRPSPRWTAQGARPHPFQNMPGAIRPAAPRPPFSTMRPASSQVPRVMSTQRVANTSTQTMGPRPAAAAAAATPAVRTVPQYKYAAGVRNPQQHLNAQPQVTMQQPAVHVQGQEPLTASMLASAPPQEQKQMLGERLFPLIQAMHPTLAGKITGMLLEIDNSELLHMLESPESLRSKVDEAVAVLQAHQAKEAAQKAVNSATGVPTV

[4] = target: T2, Runt-related transcription factor 1/Core-binding factor subunit beta; test: inhibitors of RUNX1 Runt–CBFb-SMMHC binding, primary screen, biochemical, FRET, Cerulean-Runt, Venus-CBFb-SMMHC, uHTS (AID 1434); type: protein assay;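 note: partner is the CBFb-SMMHC leukemia fusion protein rather than wild-type CBFb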
[5] = target: T3, Polyadenylate-binding protein 1; test: PABP1 MLLE–PAM2 interaction inhibitors, dose response, miRNA deadenylation inhibitor project, biochemical, fluorescence polarization, Cy5-PAM2 peptide, secondary (AID 602260); type: functional; settings: read-out: IC50_Mean
[6] = target: Sphingosine 1-phosphate receptor 2 (Homo sapiens, UniProt O95136); test: Late stage counterscreen assay for S1P4 antagonists: Fluorescence dose response cell-based screening assay for antagonists of the Sphingosine 1-Phosphate Receptor 2 (S1P2). [Related pubchem assays (depositor defined):AID1510, AID1524, AID1692, AID1853, AID2332, AID489009, AID489017]; type: functional
[7] = target: Sphingosine 1-phosphate receptor 1 (Homo sapiens, UniProt P21453); test: Late stage counterscreen assay for S1P4 antagonists: Fluorescence dose response cell-based screening assay for antagonists of the Sphingosine 1-Phosphate Receptor 1 (S1P1). [Related pubchem assays (depositor defined):AID1510, AID1524, AID1692, AID1853, AID2332, AID489009, AID489017]; type: functional
[8] = target: Sphingosine 1-phosphate receptor 3 (Homo sapiens, UniProt Q99500); test: Late stage counterscreen assay for S1P4 antagonists: Fluorescence dose response cell-based screening assay for antagonists of the Sphingosine 1-Phosphate Receptor 3 (S1P3). [Related pubchem assays (depositor defined):AID1510, AID1524, AID1692, AID1853, AID2332, AID489009, AID489017]; type: functional
[9] = target: Sphingosine 1-phosphate receptor 5 (Homo sapiens, UniProt Q9H228); test: Late stage counterscreen assay for S1P4 antagonists: Fluorescence dose response cell-based screening assay for antagonists of the Sphingosine 1-Phosphate Receptor 5 (S1P5). [Related pubchem assays (depositor defined):AID1510, AID1524, AID1692, AID1853, AID2332, AID489009, AID489017]; type: functional
[10] = target: T4, Voltage-dependent T-type calcium channel subunit alpha-1H (Homo sapiens, UniProt O95180); test: Cav3.2 T-type channel inhibitors, synthesized analogs, SAR follow-up, cell-based, synthetic library set 2, HEK293 HH8, Fluo-4 (AID 493023); type: functional
T4 sequence (O95180 whole entry, the tested form may be a part): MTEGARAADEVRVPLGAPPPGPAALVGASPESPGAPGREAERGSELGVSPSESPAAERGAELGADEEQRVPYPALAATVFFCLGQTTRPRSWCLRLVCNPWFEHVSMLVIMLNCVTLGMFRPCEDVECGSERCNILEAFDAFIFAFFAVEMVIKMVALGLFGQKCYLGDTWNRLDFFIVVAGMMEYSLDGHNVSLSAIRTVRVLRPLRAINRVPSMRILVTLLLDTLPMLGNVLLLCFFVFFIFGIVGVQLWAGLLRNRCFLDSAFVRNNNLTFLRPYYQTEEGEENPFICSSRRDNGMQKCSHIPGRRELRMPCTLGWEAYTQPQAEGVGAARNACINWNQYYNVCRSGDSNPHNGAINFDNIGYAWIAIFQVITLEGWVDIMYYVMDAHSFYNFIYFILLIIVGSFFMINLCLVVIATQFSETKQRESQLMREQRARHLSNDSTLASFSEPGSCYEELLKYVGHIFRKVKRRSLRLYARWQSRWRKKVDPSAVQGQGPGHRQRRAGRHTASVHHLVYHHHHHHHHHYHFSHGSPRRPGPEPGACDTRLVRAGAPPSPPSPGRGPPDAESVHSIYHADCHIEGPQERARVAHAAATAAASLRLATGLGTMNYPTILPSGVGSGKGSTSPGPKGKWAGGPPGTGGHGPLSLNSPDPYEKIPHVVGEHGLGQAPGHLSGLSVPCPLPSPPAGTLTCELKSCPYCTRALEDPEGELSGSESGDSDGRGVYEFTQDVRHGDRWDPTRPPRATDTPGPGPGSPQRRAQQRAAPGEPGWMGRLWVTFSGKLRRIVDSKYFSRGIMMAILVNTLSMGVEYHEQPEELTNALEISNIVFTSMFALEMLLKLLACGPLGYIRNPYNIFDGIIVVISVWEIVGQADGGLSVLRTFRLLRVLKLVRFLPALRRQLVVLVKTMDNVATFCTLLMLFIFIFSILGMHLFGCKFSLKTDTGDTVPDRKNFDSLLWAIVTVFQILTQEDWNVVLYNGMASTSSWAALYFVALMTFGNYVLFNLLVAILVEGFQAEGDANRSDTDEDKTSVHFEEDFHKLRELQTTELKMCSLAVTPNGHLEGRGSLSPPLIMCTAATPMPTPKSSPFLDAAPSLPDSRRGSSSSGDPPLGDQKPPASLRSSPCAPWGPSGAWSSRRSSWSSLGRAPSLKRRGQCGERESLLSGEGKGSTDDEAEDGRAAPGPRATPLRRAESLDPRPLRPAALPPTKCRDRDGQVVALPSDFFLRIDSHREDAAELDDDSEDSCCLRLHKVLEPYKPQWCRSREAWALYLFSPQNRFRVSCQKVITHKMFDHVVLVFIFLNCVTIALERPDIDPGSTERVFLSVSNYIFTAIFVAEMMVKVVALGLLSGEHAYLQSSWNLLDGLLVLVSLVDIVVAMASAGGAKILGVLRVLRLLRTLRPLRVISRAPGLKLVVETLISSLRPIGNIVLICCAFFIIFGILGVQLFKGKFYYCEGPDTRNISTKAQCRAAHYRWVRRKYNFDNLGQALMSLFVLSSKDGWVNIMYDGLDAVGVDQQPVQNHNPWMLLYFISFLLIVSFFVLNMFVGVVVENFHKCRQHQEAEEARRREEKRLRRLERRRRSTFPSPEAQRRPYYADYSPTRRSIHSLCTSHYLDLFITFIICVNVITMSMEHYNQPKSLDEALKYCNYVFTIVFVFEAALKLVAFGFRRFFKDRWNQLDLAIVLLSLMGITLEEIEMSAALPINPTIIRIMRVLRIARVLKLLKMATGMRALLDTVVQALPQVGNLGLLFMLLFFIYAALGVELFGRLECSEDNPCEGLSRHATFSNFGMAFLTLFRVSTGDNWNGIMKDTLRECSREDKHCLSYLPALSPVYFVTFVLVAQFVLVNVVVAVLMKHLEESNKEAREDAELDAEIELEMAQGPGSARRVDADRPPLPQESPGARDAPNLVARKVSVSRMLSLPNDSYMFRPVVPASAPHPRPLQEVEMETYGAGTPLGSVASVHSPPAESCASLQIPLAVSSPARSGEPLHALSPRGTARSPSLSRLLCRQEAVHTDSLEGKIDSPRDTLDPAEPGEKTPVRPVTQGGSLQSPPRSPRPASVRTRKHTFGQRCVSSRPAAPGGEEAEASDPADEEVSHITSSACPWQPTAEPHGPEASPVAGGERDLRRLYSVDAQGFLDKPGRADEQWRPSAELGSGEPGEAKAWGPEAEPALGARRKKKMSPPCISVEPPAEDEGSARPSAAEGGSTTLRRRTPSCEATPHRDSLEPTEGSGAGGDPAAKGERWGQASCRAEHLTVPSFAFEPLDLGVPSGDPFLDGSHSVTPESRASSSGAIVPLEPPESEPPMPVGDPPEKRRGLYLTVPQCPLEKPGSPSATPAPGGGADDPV

[11] = target: Nucleotide-binding oligomerization domain-containing protein 2 (Homo sapiens, UniProt Q9HC29); test: NOD2 signaling inhibitors, analog potency, SAR follow-up, cell-based, set 3 (AID 2799); type: functional
HEK293 = test: SAR analysis of compounds that are cytotoxic to HEK293 - Set 3. [Related pubchem assays (depositor defined):AID1575, AID1578, AID1848, AID1849, AID2001, AID2333, AID2334, AID2335, AID2337, AID2469]; type: functional, cell-based; settings: Homo sapiens
[12] = target: T5, Nucleotide-binding oligomerization domain-containing protein 1 (Homo sapiens, UniProt Q9Y239); test: SAR analysis of compounds that inhibit NOD1 - Set 3. [Related pubchem assays (depositor defined):AID1566, AID1575, AID1578, AID1849, AID1852, AID2333, AID2335, AID2466]; type: functional
T5 sequence (Q9Y239 whole entry): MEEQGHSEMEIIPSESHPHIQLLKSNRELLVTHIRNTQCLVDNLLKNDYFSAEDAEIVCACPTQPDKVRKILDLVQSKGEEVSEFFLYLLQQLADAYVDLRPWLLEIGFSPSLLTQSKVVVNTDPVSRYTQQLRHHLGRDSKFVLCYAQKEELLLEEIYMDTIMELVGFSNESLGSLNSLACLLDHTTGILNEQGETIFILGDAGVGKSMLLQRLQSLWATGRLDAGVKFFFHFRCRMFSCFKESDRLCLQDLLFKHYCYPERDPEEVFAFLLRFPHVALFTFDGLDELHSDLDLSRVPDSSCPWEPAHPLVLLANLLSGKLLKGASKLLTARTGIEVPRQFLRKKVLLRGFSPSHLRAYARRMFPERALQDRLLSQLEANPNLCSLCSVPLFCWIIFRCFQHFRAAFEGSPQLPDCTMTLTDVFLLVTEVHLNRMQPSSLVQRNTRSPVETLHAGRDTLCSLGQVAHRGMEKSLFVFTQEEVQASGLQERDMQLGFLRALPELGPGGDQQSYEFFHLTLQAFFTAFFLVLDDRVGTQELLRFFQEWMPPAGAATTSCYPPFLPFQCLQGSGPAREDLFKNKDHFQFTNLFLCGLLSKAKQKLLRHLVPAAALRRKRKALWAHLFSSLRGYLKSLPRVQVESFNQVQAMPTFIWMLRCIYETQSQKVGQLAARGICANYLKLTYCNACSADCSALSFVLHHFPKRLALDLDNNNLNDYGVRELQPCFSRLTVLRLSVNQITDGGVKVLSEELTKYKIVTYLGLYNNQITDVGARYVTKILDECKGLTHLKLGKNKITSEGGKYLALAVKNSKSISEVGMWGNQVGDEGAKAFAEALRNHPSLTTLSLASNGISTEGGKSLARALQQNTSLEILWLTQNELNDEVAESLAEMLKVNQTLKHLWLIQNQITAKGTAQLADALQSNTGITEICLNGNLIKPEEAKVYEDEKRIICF

Tumor necrosis factor = Tumor necrosis factor (Homo sapiens, UniProt P01375); test: TNFa-triggered NF-kB activation inhibitors, SAR follow-up, cell-based, set 3 (AID 2801); type: functional
[13] = target: T4, Voltage-dependent T-type calcium channel subunit alpha-1H; test: Cav3.2 T-type channel blockers, cell-based, SynthLib3 library, HEK293 Cav3.2, fluorescence (AID 493041); type: functional
Mu-type opioid receptor = Mu-type opioid receptor (Homo sapiens, UniProt P35372); test: HTS Image-Based Screen for Agonists of the MOR Receptor. [Related pubchem assays (depositor defined):AID1777, AID1785, AID1786, AID2133]; type: functional;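 note: imaging of beta-arrestin GFP recruitment into spots after receptor activation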
Melanocortin receptor 4 = Melanocortin receptor 4 (Homo sapiens, UniProt P32245); type: functional, cell-based;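 note: Cell-based assay with luminescence read-out, confirmatory dose-response testing for agonist activity of biased ligands at MC4R; human U2OS cells with tagged receptor and beta-arrestin; potency of agonists that increase receptor coupling to beta-arrestin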
Chain of Melanocortin receptor 4 (P32245 whole entry): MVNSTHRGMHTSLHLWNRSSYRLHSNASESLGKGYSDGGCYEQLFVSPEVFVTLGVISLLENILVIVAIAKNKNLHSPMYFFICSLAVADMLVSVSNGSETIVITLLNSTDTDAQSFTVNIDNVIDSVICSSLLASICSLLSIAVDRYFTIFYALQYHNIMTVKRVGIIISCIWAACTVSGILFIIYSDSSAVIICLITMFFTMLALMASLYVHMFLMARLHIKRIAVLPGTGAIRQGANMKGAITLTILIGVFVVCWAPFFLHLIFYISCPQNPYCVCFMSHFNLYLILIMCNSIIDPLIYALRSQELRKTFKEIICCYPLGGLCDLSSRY

[14] = target: T6, Delta-type opioid receptor (Homo sapiens, UniProt P41143); test: HTS Image-Based Screen for Antagonists of the DOR Receptor. [Related pubchem assays (depositor defined):AID1777, AID1785, AID1786, AID2133]; type: functional
T6 sequence (P41143 whole entry): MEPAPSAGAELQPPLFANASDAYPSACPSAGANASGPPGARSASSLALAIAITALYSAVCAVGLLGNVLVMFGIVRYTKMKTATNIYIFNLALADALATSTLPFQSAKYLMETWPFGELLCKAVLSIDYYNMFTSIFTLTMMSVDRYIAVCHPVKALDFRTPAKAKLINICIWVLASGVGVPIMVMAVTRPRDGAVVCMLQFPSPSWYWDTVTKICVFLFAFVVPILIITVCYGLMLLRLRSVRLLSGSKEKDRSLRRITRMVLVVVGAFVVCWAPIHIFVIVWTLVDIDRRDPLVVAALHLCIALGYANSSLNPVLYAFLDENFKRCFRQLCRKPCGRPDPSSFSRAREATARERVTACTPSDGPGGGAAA

[15] = target: T6, Delta-type opioid receptor; test: HTS Image-Based Screen for Agonists of the DOR Receptor. [Related pubchem assays (depositor defined):AID1777, AID1786, AID2133]; type: functional
[16] = target: T7, Kappa-type opioid receptor (Homo sapiens, UniProt P41145); type: functional
T7 sequence (P41145 whole entry): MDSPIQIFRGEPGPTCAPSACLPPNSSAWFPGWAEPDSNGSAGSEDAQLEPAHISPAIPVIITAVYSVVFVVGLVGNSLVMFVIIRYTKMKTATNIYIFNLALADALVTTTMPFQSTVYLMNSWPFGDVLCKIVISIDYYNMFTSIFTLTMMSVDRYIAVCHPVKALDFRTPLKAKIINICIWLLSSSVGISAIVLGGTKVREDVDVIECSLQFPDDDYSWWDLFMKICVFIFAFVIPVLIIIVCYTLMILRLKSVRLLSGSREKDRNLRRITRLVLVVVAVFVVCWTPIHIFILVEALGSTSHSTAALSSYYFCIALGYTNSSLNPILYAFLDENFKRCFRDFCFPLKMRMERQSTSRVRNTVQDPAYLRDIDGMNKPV

[17] = target: T7, Kappa-type opioid receptor; type: functional; remark: listed apart in the source

COc1ccc(N2CCN(C(=O)CSc3nnc(-c4cccnc4)n3-c3ccccc3)CC2)cc1 was tested, and the AC50 [1] was > 60 µM (inactive).
In the case of COc1ccc(N2C3=C(CC4=C2CCCC4=O)C(=O)CCC3)cc1, the IC50 (Hexokinase HKDC1) is reported as 8.05 µM (active), the IC50 [2] is reported as 17.7 µM (active) and the IC50 (Protein Tat) is reported as > 100 µM (active). The IC50 [3] was > 66 µM (inactive), the IC50 [4] was 0.372 µM (active) and the IC50 [5] was > 66 µM (inactive).
For Cc1cccc(Cl)c1NC(=O)c1ccc(-c2cc(Cl)ccc2Cl)o1, the IC50 [6] was 9.5 µM (active), the IC50 [7] was > 25 µM (inactive) and the IC50 [8] was > 25 µM (inactive). The IC50 [9] was > 25 µM (inactive).
In the case of O=C(COc1ccc(F)cc1Cl)N[C@@H]1CCCN(Cc2ccccc2)C1, the EC50 [10] is reported as 10 µM (active).
For CC(C)C(=O)N(C)C(c1ccccc1)c1c[nH]c2ccccc12 (stereo not drawn), the IC50 [11] was > 20 µM (inactive), the IC50 (HEK293) was > 20 µM (inactive) and the IC50 [12] was > 20 µM (inactive). The IC50 (Tumor necrosis factor) was > 20 µM (inactive).
With CCC(C)CN1CCC[C@H](NC(=O)COc2ccc(F)c(Cl)c2)C1 (stereo partly drawn) the EC50 [13] was 10 µM (active).
Nc1ccc(C2(c3ccc(N)cc3)c3ccccc3-c3ccccc32)cc1 was tested, and the EC50 (Mu-type opioid receptor) was > 32 µM (inactive), the EC50 (Melanocortin receptor 4) was > 89.2 µM (inactive) and the IC50 [14] was > 32 µM (inactive). The EC50 [15] was > 32 µM (inactive), the EC50 [16] was over 35 µM and the EC50 [17] was 8.41 µM.
